Source: the NIST ThermoML archive (doi:10.1021/je301123j)

Assay: xn = mol fraction of the nth substance listed
Settings: for surface tension liquid-gas: Ring tensiometer; for mass density / speed of sound / viscosity: 100 kPa, Liquid

CCN1CCCC1=O [1-ethyl-2-pyrrolidinone] + OCCNCCO
Settings | mass density, 293.15 K [kg/m3] | mass density, 303.15 K [kg/m3] | speed of sound, 293.15 K [m/s] | speed of sound, 303.15 K [m/s] | surface tension liquid-gas, 293.15 K [mN/m] | surface tension liquid-gas, 303.15 K [mN/m] | viscosity, 293.15 K [mPa·s] | viscosity, 303.15 K [mPa·s]
x1 = 0.1 | 1084.34 | 1077.54 | 1700.4 | 1672.2 | 44.5 | 43.6 | 462.69 | 211.41
x1 = 0.2005 | 1072.76 | 1065.85 | 1666.7 | 1637.9 | 42.8 | 41.3 | 227.23 | 110.73
x1 = 0.3001 | 1061.83 | 1054.58 | 1638.2 | 1607.8 | 41.2 | 40.1 | 109.6 | 55.57
x1 = 0.4002 | 1051.18 | 1043.68 | 1611.7 | 1581 | 40.1 | 39.1 | 51.6 | 29.59
x1 = 0.4999 | 1040.9 | 1033.22 | 1589.2 | 1557.4 | 39.2 | 38.4 | 26.02 | 16.21
x1 = 0.6 | 1031.22 | 1023.25 | 1569.3 | 1536.3 | 38.1 | 37.1 | 13.84 | 9.351
x1 = 0.7001 | 1022.09 | 1013.95 | 1552.5 | 1518.1 | 37.8 | 36.7 | 8.154 | 5.87
x1 = 0.8001 | 1013.33 | 1005.2 | 1538.4 | 1503.6 | 37.2 | 36.2 | 4.999 | 3.826
x1 = 0.8995 | 1005.23 | 996.81 | 1524.5 | – | 36.5 | 35.3 | 3.117 | –
x1 = 1 | 997.91 | – | 1513.2 | – | 36.5 | 35.2 | 2.132 | –
